Measured values from patent publication US20230256095A1, “DYES FOR USE IN A METHOD OF TREATMENT OF VITREOUS OPACITY-RELATED DISEASES” (UNIVERSITEIT GENT, priority 2020, published 2023).

Experiments:
[1] = molecular target: T1, collagen fibers (Rattus norvegicus, UniProt P02454+P02466); test: In vivo binding of intravitreally injected ICG to collagen fibers (PAM/OCT/fundus imaging); design: species or system rabbit
T1 construct: host or cells: exogenous fibres injected into the vitreous of New Zealand White rabbits
T1 sequence (P02454 152-1207 limits assumed): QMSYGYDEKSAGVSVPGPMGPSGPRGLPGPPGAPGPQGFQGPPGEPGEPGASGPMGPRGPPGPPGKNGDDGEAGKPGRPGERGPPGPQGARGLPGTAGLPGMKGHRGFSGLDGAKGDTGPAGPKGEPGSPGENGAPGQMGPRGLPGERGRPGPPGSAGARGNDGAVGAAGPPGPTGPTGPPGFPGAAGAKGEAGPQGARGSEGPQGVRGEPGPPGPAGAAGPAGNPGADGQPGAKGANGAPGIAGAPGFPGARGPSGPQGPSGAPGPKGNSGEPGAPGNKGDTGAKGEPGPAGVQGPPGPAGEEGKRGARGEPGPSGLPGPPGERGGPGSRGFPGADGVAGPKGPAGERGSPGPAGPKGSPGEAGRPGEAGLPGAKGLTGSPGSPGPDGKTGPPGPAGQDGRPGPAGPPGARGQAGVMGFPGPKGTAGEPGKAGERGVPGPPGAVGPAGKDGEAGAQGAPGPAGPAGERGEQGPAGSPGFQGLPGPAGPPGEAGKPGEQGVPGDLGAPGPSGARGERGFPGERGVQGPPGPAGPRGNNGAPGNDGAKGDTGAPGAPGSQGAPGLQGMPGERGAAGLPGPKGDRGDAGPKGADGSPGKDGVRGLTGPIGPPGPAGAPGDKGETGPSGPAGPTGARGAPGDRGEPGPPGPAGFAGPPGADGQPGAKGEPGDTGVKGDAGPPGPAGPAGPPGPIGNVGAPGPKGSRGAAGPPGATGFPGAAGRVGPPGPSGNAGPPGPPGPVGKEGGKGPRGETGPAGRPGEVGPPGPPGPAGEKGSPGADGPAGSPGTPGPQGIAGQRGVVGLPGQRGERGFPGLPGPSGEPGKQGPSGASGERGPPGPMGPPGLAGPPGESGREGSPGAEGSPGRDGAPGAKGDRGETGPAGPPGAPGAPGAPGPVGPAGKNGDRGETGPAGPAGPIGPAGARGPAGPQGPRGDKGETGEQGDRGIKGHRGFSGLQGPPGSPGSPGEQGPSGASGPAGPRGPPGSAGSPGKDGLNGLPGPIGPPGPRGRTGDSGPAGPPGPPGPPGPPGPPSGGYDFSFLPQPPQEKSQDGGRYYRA
T1 sequence (P02466 86-1125 limits assumed): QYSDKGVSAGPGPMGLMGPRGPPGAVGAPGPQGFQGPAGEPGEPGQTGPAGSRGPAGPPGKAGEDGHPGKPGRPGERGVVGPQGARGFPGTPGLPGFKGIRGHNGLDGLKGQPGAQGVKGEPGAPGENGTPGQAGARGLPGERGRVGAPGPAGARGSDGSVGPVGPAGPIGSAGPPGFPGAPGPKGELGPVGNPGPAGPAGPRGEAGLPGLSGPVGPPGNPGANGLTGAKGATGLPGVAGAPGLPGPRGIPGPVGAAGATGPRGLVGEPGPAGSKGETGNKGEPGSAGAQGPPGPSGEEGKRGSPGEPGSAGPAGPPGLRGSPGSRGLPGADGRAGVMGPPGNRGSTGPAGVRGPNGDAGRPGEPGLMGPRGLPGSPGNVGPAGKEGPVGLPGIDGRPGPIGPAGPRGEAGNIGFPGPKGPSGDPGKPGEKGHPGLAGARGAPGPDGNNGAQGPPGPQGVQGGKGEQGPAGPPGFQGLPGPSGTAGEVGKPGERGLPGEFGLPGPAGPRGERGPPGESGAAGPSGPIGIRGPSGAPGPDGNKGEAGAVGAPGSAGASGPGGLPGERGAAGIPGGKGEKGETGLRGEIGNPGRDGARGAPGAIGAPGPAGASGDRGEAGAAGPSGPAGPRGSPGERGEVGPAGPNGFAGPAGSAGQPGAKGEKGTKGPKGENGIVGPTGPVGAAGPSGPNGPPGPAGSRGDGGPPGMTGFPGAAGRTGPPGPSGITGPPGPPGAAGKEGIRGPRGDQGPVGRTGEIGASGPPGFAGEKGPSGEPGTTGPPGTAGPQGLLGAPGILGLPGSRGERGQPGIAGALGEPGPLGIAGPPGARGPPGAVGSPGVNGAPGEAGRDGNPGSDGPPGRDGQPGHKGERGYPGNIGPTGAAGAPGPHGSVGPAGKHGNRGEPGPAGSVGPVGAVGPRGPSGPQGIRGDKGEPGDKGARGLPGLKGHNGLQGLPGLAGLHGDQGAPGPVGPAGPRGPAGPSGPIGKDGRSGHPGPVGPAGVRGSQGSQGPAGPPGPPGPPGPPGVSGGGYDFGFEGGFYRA
Description: A total of 24 New Zealand White rabbits (age 3-6 months; weight 2.45-3.15 kg; both genders) were used. The rabbits were randomly divided into 7 groups: a control group A treated with laser only (n=3), group B received an intravitreal (IVIT) injection of ICG (n=9), group C received an IVIT injection of ICG labeled collagen fibers (n=3), group D was IVIT injected with collagen fibers followed by an IVIT injection of ICG (n=3), group E was IVIT injected with HA-AuNPs labeled floaters (n=3), and group F was IVIT injected with floaters followed by an IVIT injection of HA-AuNPs (n=3). During the in vivo experiments, animal conditions such as mucous membrane color, heart rate, body heat, and respiratory rate were monitored every 15 minutes. […]
First, to visualize the retina of the rabbit eyes, a plastic contact lens was placed on the cornea. […] The position of the fibers was monitored by OCT so that the intravitreal injection of ICG could be performed close the area where the fibers were located. […]
The rabbits were monitored one minute after intravitreal injection of the collagen fibers and at day 4 post intravitreal injection of ICG. […] The rabbit eyes were assessed by color fundus photography, fluorescence imaging, optical coherence tomography (OCT) and photoacoustic microscopy (PAM), as discussed below. […]

[2] = In vivo clearance of intravitreally injected ICG from the vitreous (fundus imaging); design: species or system rabbit
Description: A total of 24 New Zealand White rabbits (age 3-6 months; weight 2.45-3.15 kg; both genders) were used. The rabbits were randomly divided into 7 groups: a control group A treated with laser only (n=3), group B received an intravitreal (IVIT) injection of ICG (n=9), group C received an IVIT injection of ICG labeled collagen fibers (n=3), group D was IVIT injected with collagen fibers followed by an IVIT injection of ICG (n=3), group E was IVIT injected with HA-AuNPs labeled floaters (n=3), and group F was IVIT injected with floaters followed by an IVIT injection of HA-AuNPs (n=3). During the in vivo experiments, animal conditions such as mucous membrane color, heart rate, body heat, and respiratory rate were monitored every 15 minutes. The animals were anesthetized by intramuscular injection of ketamine (40 mg/kg) and xylazine (5 mg/kg). A drop of tropicamide (1%) and phenylephrine hydrochloride (2.5%) was applied into the rabbit eyes to dilate their pupils at 15 min before the imaging procedures. For topical anaesthesia, a drop of topical tetracaine (0.5%) was used. To avoid corneal dehydration during the experiment, a lubricant solution (Systane, Alcon Inc., TX, USA) was added into the eye every minute using a syringe with plastic needle. To maintain the anaesthesia, a dose of ketamine (13 mg/kg) was injected every 45 min. The animal's body heat was maintained using a circulation heat blanket.
First, to visualize the retina of the rabbit eyes, a plastic contact lens was placed on the cornea. When the target location in the vitreous was selected under the microscope, the rabbits under anaesthesia were subsequently intravitreally injected. The intravitreal injections were performed using a 27 gauge needle. In one series of experiments 40 μL of ICG-fibers (which are collagen fibers treated with ICG) was injected; the concentration of collagen in the dispersions was 0.02 mg/mL. In another series of experiments, 40 μL of collagen fibers (0.02 mg/mL) were intravitreally injected. 5 days after the injection of the fibers, ICG (0.25-1.25 mg/ml) was injected in the vitreous (40 μl). The position of the fibers was monitored by OCT so that the intravitreal injection of ICG could be performed close the area where the fibers were located. Three days after the injection of ICG, laser treatment was performed.
The rabbits were monitored one minute after intravitreal injection of the collagen fibers and at day 4 post intravitreal injection of ICG. Rabbits intravitreally injected with ICG only were followed up for 14 days post injection. The rabbit eyes were assessed by color fundus photography, fluorescence imaging, optical coherence tomography (OCT) and photoacoustic microscopy (PAM), as discussed below. The rabbit's head and body were positioned in two different platforms to minimize breathing and other motion artifacts. The same scanning areas for PAM- and OCT-imaging were monitored by the fundus camera which was integrated in the OCT system. To detect the photoacoustic signal, the ultrasound transducer was placed in contact with the conjunctiva, allowing it to move freely in 3D while not applying any physical pressure on the rabbit eyes. […]
Color fundus photography was performed using a 50-degree color fundus photography system (Topcon 50EX, Topcon Corporation, Tokyo, Japan). […] Fluorescence imaging was done with the Topcon 50EX system using appropriate excitation and emission filters.

[3] = molecular target: T2, type I collagen fibers (Rattus norvegicus, UniProt P02454+P02466); test: Photo-ablation of artificial floaters with nanosecond laser
T2 construct: type I collagen from the rat tail; purchased GIBCO; host or cells: rat tail (tissue-derived)
T2 sequence (P02454 152-1207 limits assumed): as the sequence (P02454 152-1207 limits assumed) above
T2 sequence (P02466 86-1125 limits assumed): as the sequence (P02466 86-1125 limits assumed) above
Protocol: Collagen fibers were prepared from type I collagen from the rat tail (GIBCO; concentration of 3 mg/ml) as described in Sauvage et al., 2019, ACS Nano, 13, 8401-8416. 5 ml of PBS was pipetted in a 15 ml falcon tube. 330 μL of the PBS solution was replaced by 330 μL collagen type I and the solution was vortexed. Sodium hydroxide (0.1 M) (VWR, Radnor, USA) was added to the acid solution of collagen to adjust pH to 7.4. The solution was vortexed again and placed for one hour in the incubator at 37° C. The final concentration of the collagen was 0.2 mg/ml.
First, dark-field microscopy imaging was performed to locate and align the nanosecond laser (Opolette HE 355 LD, OPOTEK Inc., CA, USA) on the artificial collagen fibers in the sample. Samples of either artificial or human opacities treated with TB, ICG and ICG nanoparticles were then illuminated with the laser (<7 ns). The wavelength of the laser light was 561 nm and the energy was set at ±800 μJ. A beam expander (#GBE05-A, Thorlabs) combined with iris diaphragm (#D37SZ, Thorlabs) were used to adjust the diameter of the laser beam to 150 μm (so that 800 μJ corresponded to a laser fluence of 4.5 J/cm^2). The laser pulse energy was monitored by an energy meter (J-25 MB-HE&LE, Energy Max-USB/RS sensors, Coherent) synchronized with the pulsed-laser. The set-up was made in such way to illuminate the sample shot by shot. Videos of the sample were made during illumination with NIS software. Same experiments were performed with human opacities Comparison Between Free ICG, PAH-ICG NPs and HSA-ICG NPs in Water and Bovine Vitreous.

With `CC1(C)C(/C=C/C=C/C=C/C=C2\N(CCCCS(=O)(=O)O)c3ccc4ccccc4c3C2(C)C)=[N+](CCCCS(=O)(=O)[O-])c2ccc3ccccc3c21` [ICG, Indocyanine Green] the “reaching and binding of collagen fibers in vivo” value ([1]; IVIT 1.25 mg/mL, 5 days after fiber injection) was “could reach and bind the collagen fibers”, the “lowest concentration at which binding to collagen fibers was still observed in vivo” value ([1]; intravitreal injection) was 0.625 mg/mL and the “visibility of ICG 7 days after injection” value ([2]; 0.25 mg/ml IVIT) was “no longer visible at the level of the collagen fibers”. For the same compound, the “visibility of ICG 7 days after injection” value ([2]; 0.625 mg/ml IVIT) was “remained only visible at the level of the collagen fibers”, the “visibility of ICG 7 days after injection” value ([2]; 1.25 mg/ml IVIT) was “remained only visible at the level of the collagen fibers” and the “visibility of 'free' ICG (not bound to collagen) in vitreous cavity” value ([2]; 3 days post injection, all concentrations) was “no longer visible in the vitreous cavity”. For the same compound, the “visibility of injected ICG in vitreous” value ([2]; after one day, 0.25, 0.625 and 1.25 mg/ml IVIT) was “most of the injected ICG was no longer visible”, the “binding and destruction of type I collagen fibers” value ([3]; 0.5 mg/ml) was “can bind and efficiently destroy type I collagen fibers” and the “location of VNBs during laser pulse on fiber” value ([3]; nanosecond laser 4.5 J/cm^2) was “VNBs could be observed at the level of the fiber”.
